In patent US8349885B2, “Indole and indazole derivatives having a cell-, tissue- and organ-preserving effect” (LG Life Sciences Ltd., priority 2008, dated 2013):

tested on: primary hepatocytes isolated from rats; assay: Hepatocyte-protecting effect: viability of isolated primary hepatocytes in culture (WST-1); assay type: cell-based; settings: rat primary hepatocytes; treated at 1 or 10 μM; WST-1, optical density at 440 nm
Method: If cells are isolated from in vivo environment and their culture or preservation in vitro is begun, it would act as a stress to cells, and the apoptosis mechanism would begin to work. For preservation of organs or tissues, it is necessary to protect them from such a primary stress.
In order to verify this, primary hepatocytes isolated from rats were treated with the compounds of the working examples to observe how well the compounds can protect them from a primary stress. Primary hepatocytes were isolated using the Seglen PO method (Experimental Cell Research 74 (1972) pp. 450-454). Briefly, hepatocytes were isolated according to the two-step collagenase perfusion method and then centrifuged using percoll gradient (Kreamer BL etc., In Vitro Cellular & Developmental Biology 22 (1986) pp. 201-211) at low speed (500 rpm) for 10 minutes to remove dead cells. Viability of hepatocytes was maintained at 90% or more. Cells were suspended in HepatoZYME media (Gibco BRL) and counted. 1.5×10^4 cells of 100 μl were put into a 96-well plate (BD biocoat) coated with collagen and attached to the bottom for 3-4 hours. […] After 24, 72 or 144 hours, cell viability was measured to evaluate a hepatocyte-protecting effect.
Cell viability was measured by the optical density at 440 nm according to the WST-1 method (MK-400, Takeda). […]

Question: Which “viability after 144 hours, compared with viability after 24 hours” value does the source give for `O=C(O)C[C@H]1CSC(c2cc3cc(Oc4ccccc4)cc(NC4CCCC4)c3[nH]2)=N1` [Example 21, [(S)-2-(7-cyclopentylamino-5-phenoxy-1H-indol-2-yl)-4,5-dihydro-thiazole-4-yl]-acetic acid] here?
Answer: ≥ 80%

Question: How did the “viability after 72 hours, compared with viability after 24 hours” value turn out when `C[C@H](NC(=O)C(=O)Nc1ccccc1C(C)(C)C)C(=O)N[C@@H](CC(=O)O)C(=O)COc1c(F)c(F)cc(F)c1F` [IDN6556, reference compound] was run?
Answer: about 50%

tested on: primary cultured hepatocytes; assay: Cell-protecting effect against cold shock in primary cultured hepatocytes (WST-1); assay type: cell-based; settings: Rattus norvegicus, Hepatocyte, 37° C. for 1 hour, 4° C. for 22 hours, then 37° C., cell viability by WST-1
Method: In order to reproduce a condition for preservation prior to organ transplantation, primary cultured hepatocytes were prepared according to Experimental Example 1 and treated with the compounds of the working examples at 9 different concentrations that had been prepared by 3-fold serial dilution method using a starting concentration of 25 μM. The mixture was cultured at 37° C. for 1 hour, stored at 4° C. for 22 hours, and then transferred into an incubator at 37° C. and cultured therein. Cell viability was measured by the optical density at 440 nm according to the WST-1 method (MK-400, Takeda), and IC50 (unit: μM) was obtained using prism software (see Table 1).

Question: `OC[C@@H]1CSC(c2cc3cccc(NC4CCCC4)c3[nH]2)=N1` [Example 5, [(R)-2-(7-cyclopentylamino-1H-indol-2-yl)-4,5-dihydro-1,3-thiazol-4-yl]-methanol] was tested. Which IC50 did it give?
Answer: < 120 nM

Question: Which IC50 does the source give for `OC[C@@H]1CSC(c2cc3cccc(NC4CCOCC4)c3[nH]2)=N1` [Example 7, {(R)-2-[7-(tetrahydro-pyran-4-ylamino)-1H-indol-2-yl]-4,5-dihydro-thiazol-4-yl}-methanol] here?
Answer: < 400 nM

Question: Which IC50 does the source give for `O=C(O)C[C@@H]1CSC(c2cc3cc(Br)cc(NC4CCCC4)c3[nH]2)=N1` [Example 16, [(R)-2-(5-bromo-7-cyclopentylamino-1H-indol-2-yl)-4,5-dihydro-thiazol-4-yl]-acetic acid] here?
Answer: 3560 nM

Question: How did the IC50 turn out when `CCOc1cc(NC2CCCC2)c2[nH]c(C3=N[C@H](CC(=O)O)CS3)cc2c1` [Example 17, [(R)-2-(7-cyclopentylamino-5-ethoxy-1H-indol-2-yl)-4,5-dihydro-thiazol-4-yl]-acetic acid] was run?
Answer: < 120 nM

Question: With `O=C(O)C[C@H]1CSC(c2cc3cc(Oc4ccccc4)cc(NC4CCCC4)c3[nH]2)=N1` [Example 21, [(S)-2-(7-cyclopentylamino-5-phenoxy-1H-indol-2-yl)-4,5-dihydro-thiazole-4-yl]-acetic acid] as the compound, how does the IC50 read?
Answer: < 120 nM

Question: `CCOC(=O)CC[C@@H]1CSC(c2cc3cc(Cl)cc(NC4CCCC4)c3[nH]2)=N1` [Example 22, 3-[(R)-2-(5-chloro-7-cyclopentylamino-1H-indol-2-yl)-4,5-dihydro-thiazol-4-yl]-propionic acid ethyl ester] was tested. Which IC50 did it give?
Answer: 970 nM

Question: `c1ccc(-c2cc3cccc(NC4CCCC4)c3[nH]2)nc1` [Example 24, cyclopentyl-(2-pyridin-2-yl-1H-indol-7-yl)amine] was tested. Which IC50 did it give?
Answer: < 120 nM

Question: For `Cc1cc(NC2CCCC2)c2[nH]c(-c3nc(C(=O)O)cs3)cc2c1` [Example 29, 2-(7-cyclopentylamino-5-methyl-1H-indol-2-yl)-thiazole-4-carboxylic acid], which IC50 is on record?
Answer: 1460 nM

Question: For `Cc1cc(NC2CCCC2)c2[nH]c(-c3nc(CO)cs3)cc2c1` [Example 30, [2-(7-cyclopentylamino-5-methyl-1H-indol-2-yl)-thiazole-4-yl]-methanol], which IC50 is on record?
Answer: < 120 nM

Question: Which IC50 does the source give for `Cc1cc(NC2CCCC2)c2[nH]c(-c3nnco3)cc2c1` [Example 32, cyclopentyl-(5-methyl-2-[1,3,4]oxadiazol-2-yl-1H-indol-7-yl)-amine] here?
Answer: < 120 nM

Question: How did the IC50 turn out when `Cc1cc(NC2CCC(=O)CC2)c2[nH]c(-c3ccccn3)cc2c1` [Example 38, 4-(5-methyl-2-pyridin-2-yl-1H-indol-7-ylamino)-cyclohexanone] was run?
Answer: < 120 nM

Question: With `Cc1cc(NCC2CCCC2)c2[nH]c(-c3ccccn3)cc2c1` [Example 40, cyclopentylmethyl-(5-methyl-2-pyridin-2-yl-1H-indol-7-yl)-amine] as the compound, how does the IC50 read?
Answer: < 120 nM

Question: For `Cc1cc(NC2CCCC2)c2[nH]c(C3CCCCC3)cc2c1` [Example 47, (2-cyclohexyl-5-methyl-1H-indol-7-yl)-cyclopentyl-amine], which IC50 is on record?
Answer: < 120 nM

Question: For `CC(=O)N1CCC(Nc2cc(C)cc3cc(-c4ccccc4)[nH]c23)CC1` [Example 51, 1-[4-(5-methyl-2-phenyl-1H-indol-7-ylamino)-piperidin-1-yl]-ethanone], which IC50 is on record?
Answer: 260 nM

Question: For `Cc1cc(NC2CCC(C(=O)NCCN3CCOCC3)CC2)c2[nH]c(-c3ccccc3)cc2c1` (stereo not shown) [Example 56, 4-(5-methyl-2-phenyl-1H-indol-7-ylamino)-cyclohexane carboxylic acid (2-morpholin-4-yl-ethyl)-amide], which IC50 is on record?
Answer: 200 nM

Question: How did the IC50 turn out when `Cc1cc(NCC2CCOCC2)c2[nH]c(-c3ccccc3)cc2c1` [Example 58, (5-methyl-2-phenyl-1H-indol-7-yl)-(tetrahydro-pyran-4-ylmethyl)-amine] was run?
Answer: < 120 nM

Question: Which IC50 does the source give for `O=C(O)Cc1cc(NC2CCCC2)c2[nH]c(-c3ccccc3)cc2c1` [Example 75, (7-cyclopenthylamino-2-phenyl-1H-indol-5-yl)-acetic acid] here?
Answer: < 120 nM

Question: How did the IC50 turn out when `OCCc1cc(NC2CCCC2)c2[nH]c(-c3ccccc3)cc2c1` [Example 76, 2-(7-cyclopenthylamino-2-phenyl-1H-indol-5-yl)-ethanol] was run?
Answer: < 120 nM

Question: Which IC50 does the source give for `O=C(O)CC1CSC(c2cc3cccc(NC4CCCC4)c3[nH]2)=N1` (stereo not shown) [Example 83] here?
Answer: 729 nM

Question: Which IC50 does the source give for `O=S1(=O)CCN(Cc2cc(NCC3CCOCC3)c3[nH]c(-c4ccccc4)c(Br)c3c2)CC1` [Example 142, [3-bromo-5-(1,1-dioxo-thiomorpholin-4-ylmethyl)-2-phenyl-1H-indol-7-yl]-(tetrahydro-pyran-4-ylmethyl)-amine] here?
Answer: 300 nM

Question: `C[Si](C)(C)c1[nH]c2c(NC3CCOCC3)cc(CN3CCS(=O)(=O)CC3)cc2c1-c1ccccc1` [Example 146, [5-(1,1-dioxo-thiomorpholin-4-ylmethyl)-3-phenyl-2-trimethylsilanyl-1H-indol-7-yl]-(tetrahydropyran-4-yl)-amine] was tested. Which IC50 did it give?
Answer: 603 nM

tested on: human embryonic lung cell line (LB-HEL); assay: Cell-protecting effect against cold shock in LB-HEL cells (WST-1); assay type: cell-based; settings: cold shock at 4° C. for 24 hours, then 37° C., cell viability by WST-1
Method: The same results as above were also obtained in other types of cells such as human embryonic lung cell line (LB-HEL) as well as hepatocytes (see FIG. 2 and Table 2). More specifically, LB-HEL cells were plated at 1.5×10^6 cells/well using DMEM medium (Gibco BRL) and treated with DMSO, nec-1, IM-54 or the compounds of Examples 126, 127, 137 and 138 at indicated concentrations. After storage at 4° C. for 24 hours, the mixture was transferred into an incubator at 37° C. and cultured therein. In order to verify recovery capacity at 37° C., cell viability after 24 hours post-transfer was measured by the optical density at 440 nm according to the WST-1 method (MK-400, Takeda) and compared with cell viability prior to cold shock (FIG. 2).

Question: Which IC50 does the source give for `Cc1cc(NC2CCC(F)(F)CC2)c2[nH]c(C3=NC(CC(=O)O)CS3)cc2c1` (stereo not shown) [Example 79] here?
Answer: 3300 nM

Question: With `O=C(O)CC1CSC(c2cc3cccc(NC4CCCC4)c3[nH]2)=N1` (stereo not shown) [Example 83] as the compound, how does the IC50 read?
Answer: 3660 nM

Question: `CC(=O)N1CCC(Nc2cccc3cc(C4=NC(CC(=O)O)CS4)[nH]c23)C1` (stereo not shown) [Example 84] was tested. Which IC50 did it give?
Answer: 7110 nM

Question: With `O=S1(=O)CCN(Cc2cc(NC3CCOCC3)c3[nH]c(-c4ccccc4)c(Br)c3c2)CC1` [Example 139] as the compound, how does the IC50 read?
Answer: < 100 nM

Question: How did the IC50 turn out when `Brc1c(-c2ccccc2)[nH]c2c(NC3CCOCC3)cc(CN3CCOCC3)cc12` [Example 140, [3-bromo-(5-morpholin-4-yl)methyl-2-phenyl-1H-indol-7-yl]-(tetrahydropyran-4-yl)-amine] was run?
Answer: < 100 nM

Question: `O=S1(=O)CCN(Cc2cc(NC3CCCC3)c3[nH]c(-c4ccccc4)c(Br)c3c2)CC1` [Example 141, [3-bromo-5-(1,1-dioxo-thiomorpholin-4-yl methyl)-2-phenyl-1H-indol-7-yl]-cyclopentyl-amine] was tested. Which IC50 did it give?
Answer: < 100 nM

Question: With `O=S1(=O)CCN(Cc2cc(NCC3CCOCC3)c3[nH]c(-c4ccccc4)c(Br)c3c2)CC1` [Example 142, [3-bromo-5-(1,1-dioxo-thiomorpholin-4-ylmethyl)-2-phenyl-1H-indol-7-yl]-(tetrahydro-pyran-4-ylmethyl)-amine] as the compound, how does the IC50 read?
Answer: < 100 nM

Question: With `Clc1cc(NC2CCOCC2)c2[nH]cc(-c3ccccc3)c2c1` [Example 143, (5-chloro-3-phenyl-1H-indol-7-yl)-(tetrahydro-pyran-4-yl)-amine] as the compound, how does the IC50 read?
Answer: < 100 nM

Question: For `Clc1cc(NC2CCCC2)c2[nH]cc(-c3ccccc3)c2c1` [Example 144, (5-chloro-3-phenyl-1H-indol-7-yl)-(cyclopentyl)-amine], which IC50 is on record?
Answer: < 100 nM

Question: `Clc1cc(NCC2CCOCC2)c2[nH]cc(-c3ccccc3)c2c1` [Example 145, (5-chloro-3-phenyl-1H-indol-7-yl)-(tetrahydropyran-4-ylmethyl)-amine] was tested. Which IC50 did it give?
Answer: < 100 nM

Question: For `C[Si](C)(C)c1[nH]c2c(NC3CCOCC3)cc(CN3CCS(=O)(=O)CC3)cc2c1-c1ccccc1` [Example 146, [5-(1,1-dioxo-thiomorpholin-4-ylmethyl)-3-phenyl-2-trimethylsilanyl-1H-indol-7-yl]-(tetrahydropyran-4-yl)-amine], which IC50 is on record?
Answer: 823 nM

Question: With `O=C1CN(Cc2c(-c3ccccc3)[nH]c3c(NC4CCCC4)cc(Cl)cc23)CCN1` [Example 147, 4-(5-chloro-7-cyclopentylamino-2-phenyl-1H-indol-3-ylmethyl)-piperazin-2-one] as the compound, how does the IC50 read?
Answer: 1080 nM

Question: With `O=C1CN(Cc2c(-c3ccccc3)[nH]c3c(NC4CCOCC4)cc(Cl)cc23)CCN1` [Example 148, 4-[5-chloro-2-phenyl-7-(tetrahydropyran-4-ylamino)-1H-indol-3-ylmethyl]-piperazin-2-one] as the compound, how does the IC50 read?
Answer: 2350 nM

Question: Which IC50 does the source give for `O=C1CN(Cc2c(-c3ccccc3)[nH]c3c(NCC4CCOCC4)cc(Cl)cc23)CCN1` [Example 149, 4-{5-chloro-2-phenyl-7-[(tetrahydropyran-4-ylmethyl)-amino]-1H-indol-3-ylmethyl}-piperazin-2-one] here?
Answer: 1450 nM

Question: Which IC50 does the source give for `COc1ccc(-c2n[nH]c3c(NC4CCCC4)cccc23)cc1` [Example 150, cyclopentyl-[3-(4-methoxyphenyl)-1H-indazol-7-yl]-amine] here?
Answer: 210 nM

Question: Which IC50 does the source give for `COc1ccc(-c2n[nH]c3c(NC4CCOCC4)cccc23)cc1` [Example 151, [3-(4-methoxyphenyl)-1H-indazol-7-yl]-(tetrahydropyran-4-yl)-amine] here?
Answer: 384 nM

Question: How did the IC50 turn out when `COc1ccc(-c2n[nH]c3c(NCC4CCOCC4)cccc23)cc1` [Example 152, [3-(4-methoxyphenyl)-1H-indazol-7-yl]-(tetrahydropyran-4-ylmethyl)-amine] was run?
Answer: 590 nM
